Data on 21 molecules can be found in US9822069B2, “Urea derivative or pharmacologically acceptable salt thereof” (KYORIN PHARMACEUTICAL CO. LTD., priority 2013, dated 2017).

The assay addresses T1, human FPRL1 (Homo sapiens, UniProt P25090).
T1 construct: expressed in transfected cells; host or cells: HEK293 (JCRB9068, NIBIO), transient transfection with pCMV-script vectors using Lipofectamine 2000
T1 sequence (P25090 1-351): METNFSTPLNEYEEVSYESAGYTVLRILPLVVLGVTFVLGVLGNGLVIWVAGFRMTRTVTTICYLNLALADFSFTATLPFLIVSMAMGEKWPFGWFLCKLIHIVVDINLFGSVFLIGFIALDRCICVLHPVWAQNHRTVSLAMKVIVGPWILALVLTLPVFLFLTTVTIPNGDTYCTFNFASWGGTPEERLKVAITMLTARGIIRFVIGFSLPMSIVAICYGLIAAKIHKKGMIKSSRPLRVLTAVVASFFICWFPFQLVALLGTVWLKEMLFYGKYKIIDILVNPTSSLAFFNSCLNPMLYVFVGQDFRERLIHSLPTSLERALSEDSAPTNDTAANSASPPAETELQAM
Description: Measurement test of agonist activity on human FPRL1 (test of calcium mobilization in cell, HEK293 with human FPRL1 and Gα15 expression vectors). The assay is classed as cell-based. The settings on record: calcium mobilization in HEK293 cells with human FPRL1 and Gα15 expression vectors. The method in brief: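 HEK293 transiently co-transfected with human FPRL1 and Gα15, plated 24 h before assay, loaded with Fluo-4 NW dye plus probenecid. Compounds in eight 10-fold dilutions (DMSO stocks 10^−2 to 10^−9 M, then diluted 100-fold in assay buffer); calcium mobilization read on Flexstation for EC50.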
For `CNC(=O)CN1C[C@@H](c2c(F)cc(OC)cc2F)[C@H](NC(=O)Nc2ccc(F)cc2)C1=O` (relative stereo) [Example 17-2, (−)-2-{(3S*,4R*)-4-(2,6-difluoro-4-methoxyphenyl)-3-[3-(4-fluorophenyl)ureido]-2-oxopyrrolidin-1-yl}-N-methylacetamide], the half-maximal effective concentration (EC50) was determined as 0.07 nM.

For the molecule `O=C(O)CN1C[C@@H](c2cc3c(cc2F)OCC3)[C@H](NC(=O)Nc2ccc(F)cc2)C1=O` (relative stereo) [Example 16-3, (−)-2-{(3S*,4R*)-4-(6-fluoro-2,3-dihydrobenzofuran-5-yl)-3-[3-(4-fluorophenyl)ureido]-2-oxopyrrolidin-1-yl}acetic acid], the concentration giving a half-maximal response (EC50) stood at 0.75 nM.

With `COc1cc(F)c([C@@H]2CNC(=O)[C@H]2NC(=O)Nc2ccc(F)cc2)cc1F` (single isomer, unassigned) [EXAMPLE 1-13, (−)-1-[(3S*,4R*)-4-(2,5-difluoro-4-methoxyphenyl)-2-oxopyrrolidin-3-yl]-3-(4-fluorophenyl)urea], the EC50 is 0.15 nM.

Take `COc1cc(F)c([C@@H]2CN(CCO)C(=O)[C@H]2NC(=O)Nc2cc3ccccc3s2)c(F)c1` (relative stereo) [Example 24-10, (−)-1-(benzo[b]thiophen-2-yl)-3-[(3S*,4R*)-4-(2,6-difluoro-4-methoxyphenyl)-1-(2-hydroxyethyl)-2-oxopyrrolidin-3-yl]urea]: the concentration for a half-maximal effect (EC50) was determined as 1 nM.

Regarding `O=C(Nc1cc2ccccc2s1)N[C@@H]1C(=O)NC[C@H]1c1cc2c(cc1F)OCC2` (relative stereo) [Example 1-85, (−)-1-(benzo[b]thiophen-2-yl)-3-[(3S*,4R*)-4-(6-fluoro-2,3-dihydrobenzofuran-5-yl)-2-oxopyrrolidin-3-yl]urea], the EC50 was found to be 3.5 nM.

For the molecule `COc1cc(F)c([C@@H]2CN(C)C(=O)[C@H]2NC(=O)Nc2ccc(Cl)nc2)c(F)c1` (relative stereo) [Example 24-4, (−)-1-(6-chloropyridin-3-yl)-3-[(3S*,4R*)-4-(2,6-difluoro-4-methoxyphenyl)-1-methyl-2-oxopyrrolidin-3-yl]urea], the 50% effective concentration (EC50) was found to be 0.81 nM.

As to `COc1cc(F)c([C@@H]2CN(CS(C)(=O)=O)C(=O)[C@H]2NC(=O)Nc2ccc(F)cc2)c(F)c1` (relative stereo) [Example 24-14, (−)-1-{(3S*,4R*)-4-(2,6-difluoro-4-methoxyphenyl)-1-[(methylsulfonyl)methyl]-2-oxopyrrolidin-3-yl}-3-(4-fluorophenyl)urea], the concentration for a half-maximal effect (EC50) is 0.12 nM.

In the case of `COc1ccc([C@@H]2CN(CCO)C(=O)C2NC(=O)Nc2ccc(Cl)cc2)cc1` (mixture of isomers) [Example 14-1, (±)-trans-1-(4-Chlorophenyl)-3-[1-(2-hydroxyethyl)-4-(4-methoxyphenyl)-2-oxopyrrolidin-3-yl]urea], the EC50 was found to be 0.32 nM.

Consider `COc1cc(F)c([C@@H]2CN(Cc3nnc(C)o3)C(=O)[C@H]2NC(=O)Nc2ccc(F)cc2)c(F)c1` (single isomer, unassigned) [EXAMPLE 24-18, (−)-1-{(3S*,4R*)-4-(2,6-difluoro-4-methoxyphenyl)-1-[(5-methyl-1,3,4-oxadiazol-2-yl)methyl]-2-oxopyrrolidin-3-yl}-3-(4-fluorophenyl)urea], for which the EC50 was 0.03 nM.

For `COc1cc(F)c([C@@H]2CNC(=O)[C@H]2NC(=O)Nc2ccc(C#N)c(O)c2)c(F)c1` (relative stereo) [Example 1-73, 1-(4-cyano-3-hydroxyphenyl)-3-[(3S*,4R*)-4-(2,6-difluoro-4-methoxyphenyl)-2-oxopyrrolidin-3-yl]urea], the 50% effective concentration (EC50) worked out at 1.2 nM.

On to `O=C(Nc1ccc(F)cc1)N[C@@H]1/C(=N/OCCO)NC[C@H]1c1cc2c(cc1F)OCC2` (single isomer, unassigned) [EXAMPLE 32-19, (−)-1-((3S*,4R*,Z)-4-(6-fluoro-2,3-dihydrobenzofuran-5-yl)-2-[(2-hydroxyethoxy)imino]pyrrolidin-3-yl)-3-(4-fluorophenyl)urea], for which the EC50 was 0.13 nM.

For `COc1cc(F)c([C@@H]2CNC(=O)[C@H]2NC(=O)Nc2cccc(F)c2)c(F)c1` (relative stereo) [Example 7-8, (−)-1-[(3S*,4R*)-4-(2,6-difluoro-4-methoxyphenyl)-2-oxopyrrolidin-3-yl]-3-(3-fluorophenyl)urea], the concentration for a half-maximal effect (EC50) worked out at 0.95 nM.

Take `Cc1nnc(CN2C[C@@H](c3cc4c(cc3F)OCC4)[C@H](NC(=O)Nc3ccc(F)cc3)C2=O)o1` (single isomer, unassigned) [EXAMPLE 24-24, (−)-1-{(3S*,4R*)-4-(6-fluoro-2,3-dihydrobenzofuran-5-yl)-1-[(5-methyl-1,3,4-oxadiazol-2-yl)methyl]-2-oxopyrrolidin-3-yl}-3-(4-fluorophenyl)urea]: the EC50 was determined as 0.46 nM.

Take `COc1cc(F)c([C@@H]2CN(Cc3ncc(C)o3)C(=O)[C@H]2NC(=O)Nc2ccc(F)cc2)c(F)c1` (single isomer, unassigned) [EXAMPLE 24-17, (−)-1-{(3S*,4R*)-4-(2,6-difluoro-4-methoxyphenyl)-1-[(5-methyloxazol-2-yl)methyl]-2-oxopyrrolidin-3-yl}-3-(4-fluorophenyl)urea]: the 50% effective concentration (EC50) amounted to 0.02 nM.

As for `COc1cc(F)c([C@@H]2CNC(=O)[C@H]2NC(=O)Nc2ccc(C3CC3)cc2)c(F)c1` (relative stereo) [Example 1-62, (−)-1-(4-cyclopropylphenyl)-3-[(3S*,4R*)-4-(2,6-difluoro-4-methoxyphenyl)-2-oxopyrrolidin-3-yl]urea], the half-maximal effective concentration (EC50) stood at 1.05 nM.

As for `O=C(Nc1ccc(F)cc1)N[C@@H]1C(=O)NC[C@H]1c1c(F)cc2c(c1F)CCO2` (relative stereo) [Example 1-80, 1-[(3S*,4R*)-4-(4,6-difluoro-2,3-dihydrobenzofuran-5-yl)-2-oxopyrrolidin-3-yl]-3-(4-fluorophenyl)urea], the half-maximal effective concentration (EC50) came to 0.69 nM.

Regarding `COc1cc(F)c([C@@H]2CNC(=O)[C@H]2NC(=O)Nc2ccc(OC(F)(F)F)cc2)c(F)c1` (relative stereo) [Example 7-1, (−)-1-[(3S*,4R*)-4-(2,6-Difluoro-4-methoxyphenyl)-2-oxopyrrolidin-3-yl]-3-[4-(trifluoromethoxy)phenyl]urea], the 50% effective concentration (EC50) stood at 1.09 nM.

For the molecule `COc1ccc([C@@H]2CNC(=O)[C@H]2NC(=O)Nc2ccc(F)c(F)c2)cc1` (single isomer, unassigned) [EXAMPLE 1-3, (-)-1-(3,4-difluorophenyl)-3-[(3S*,4R*)-4-(4-methoxyphenyl)-2-oxopyrrolidin-3-yl]urea], the EC50 worked out at 2.57 nM.

Turning to `O=C(Nc1ccc(F)cc1)N[C@@H]1C(=O)NC[C@H]1c1c(F)cc(OC(F)F)cc1F` (relative stereo) [Example 1-74, 1-{(3S*,4R*)-4-[4-(difluoromethoxy)-2,6-difluorophenyl]-2-oxopyrrolidin-3-yl}-3-(4-fluorophenyl)urea], the EC50 was found to be 1.8 nM.

For the molecule `COc1cc(F)c([C@@H]2CNC(=O)[C@H]2NC(=O)Nc2ccc(C)s2)c(F)c1` (relative stereo) [Example 1-39, (−)-1-[(3S*,4R*)-4-(2,6-difluoro-4-methoxyphenyl)-2-oxopyrrolidin-3-yl]-3-(5-methylthiophen-2-yl)urea], the 50% effective concentration (EC50) was found to be 3.51 nM.

For `COc1ccc([C@@H]2CNC(=O)[C@H]2NC(=O)Nc2ccc(F)cc2)c(Cl)c1` (relative stereo) [EXAMPLE 1-10, 1-[(3S*,4R*)-4-(2-chloro-4-methoxyphenyl)-2-oxopyrrolidin-3-yl]-3-(4-fluorophenyl)urea], the EC50 is 3.98 nM.
